Source: US11448643B2, “Methods to specifically profile protease activity at lymph nodes” (Massachusetts Institute of Technology, priority 2016, dated 2022)
Square brackets hold non-standard residues; d marks the D form. Ends that are not written are not given here. Pip = O=C(O)[C@@H]1CCCCN1

Columns and labels:
[1] = tested on: homogenized lymph nodes from vaccinated mice; test: Ex vivo peptide screen: cleavage of fluorogenic protease substrates by homogenized lymph nodes from vaccinated vs control mice; assay type: biochemical; conditions: 58 fluorogenic substrates; 384 well plates; fluorescence over several hours; FIG. 7
Experimental: Substrate cleavage of 58 peptides was measured. Signal reported is the fold difference in cleavage between vaccinated mice and PBS-injected mice.
Mice were vaccinated in the same manner as described above. Lymph nodes from vaccinated or non-vaccinated mice were harvested. The harvested lymph nodes were homogenized and added to the 58 fluorogenic protease substrates (SEQ ID NOs: 2-59) in 384 well plates. Fluorescent signal was monitored over the period of several hours for each substrate in the well plates. Fluorescence of reporter molecules in lymph nodes of vaccinated mice was compared to non-vaccinated mice (injected with PBS) and reported as the fold difference in cleavage of each substrate between vaccinated and control mice. […] The substrate used urinary monitoring experiment described above is referred to as Q7 (PLGVRGK; SEQ ID NO: 76).

[2] = tested on: metalloproteases in the LN; conditions: mice vaccinated with amph-EGP plus lipo-CpG and boosted; urine collected 3 hours after injection; ELISA; FIG. 6
Experimental: Mice were injected subcutaneously and urine for analysis was collected 3 h post-administration.
Mice were later boosted to engage both innate and adaptive immunity. Subsequently, mice were administered a LN-targeting pro-diagnostic reagent comprising a LN-specific enzyme susceptible domain (e.g., protease substrate). Cleavage of the pro-diagnostic reagent by metalloproteases in the LN results in production of signature molecules (ligand encoded tags) that are released into the urine of the subject (e.g., mouse). Urine was collected from the mice 3 hours after injection. Reporter signal was quantified by ELISA.

| Substance | rank of substrate cleavage (fold difference vaccinated vs control mice) [1] | urinary reporter signal in vaccinated mice compared to PBS-injected mice [2] |
| --- | --- | --- |
| f(Pip)KSGGG ([dF][Pip]KSGGG; also: fluorogenic labels) [Q10, fluorogenic protease substrate, f is D-Phe, Pip is pipecolic acid] | two highest cleaved substrates | – |
| Albumin-GPLGVRGKGK(Biotin)eGvndneeGffsarK(FAM) [Albumin-B7] | – | significantly increased |
| GGVPRG (also: fluorogenic labels) [PQ12] | two highest cleaved substrates | – |
